Laboratory results from US9352010B2, “Treatment of HIV-1 infection and AIDS” (The J. David Gladstone Institutes, priority 2011, dated 2016).
Residues, ends and D or L forms follow the SMILES beside them. *: point of attachment. Cbz = O=C(OCc1ccccc1)*; CH2F = FC*

Columns and labels:
[1] = tested on: AIM2 (Absent in melanoma-2) inflammasome; settings: by preventing ASC oligomerisation; cited from earlier work
[2] = tested on: CI/WR (cold ischemia/warm reperfusion)-induced apoptosis and injury in the liver; settings: in vivo; cited from earlier work
[3] = tested on: patients with chronic Hepatitis C; settings: oral or intravenous, 5 mg to 400 mg daily; cited from earlier work
[4] = tested on: other classes of proteases or other enzymes or receptors; settings: cited from earlier work
[5] = tested on: patients with hepatic impairment; settings: phase I; cited from earlier work
[6] = tested on: human caspases; settings: irreversible broad-spectrum; cited from earlier work
[7] = target: caspase-1 (Homo sapiens, UniProt P29466); settings: cited from earlier work
[8] = tested on: transient ischemia in rat; settings: cited from earlier work
[9] = target: caspase-4 (Homo sapiens, UniProt P49662); settings: read-out: Ki against caspase-4; cited from earlier work
[10] = tested on: murine models of inflammatory disease; settings: cited from earlier work
[11] = tested on: human PBMCs; settings: cited from earlier work
[12] = tested on: CD4 T cells in HIV-1 (NL4-3)-infected HLACs; assay: CD4 T-cell death in HIV-1-infected HLACs, viable CD4 T cells by flow cytometry; type: cell-based, human; settings: 3 days
Procedure: HLACs were left uninfected or infected with HIV-1 (NL4-3 clone) in the presence of AZT, efavirenz, AMD3100, or caspase inhibitors (20 μM each), as indicated in FIG. 16. After 3 days, the percentages of viable CD4 T cells in the cultures were determined by flow cytometry.
HLACs were left uninfected or infected with NL4-3 in the presence of no drugs, efavirenz, AMD3100, or caspase inhibitors (50 μM or 100 μM), as indicated in FIG. 16B. After 3 days, the percentages of viable CD4 T cells in the cultures were determined by flow cytometry.

[13] = tested on: CFSE-labeled CD4 T-cells; type: cell-based, human
Procedure: (A) Experimental strategy to assess indirect cell killing in HIV-1-infected human lymphoid cultures. Fresh human tonsil tissue from a single donor is processed into HLAC, and then separated into two fractions. One fraction is challenged with HIV-1 and cultured for 6 days, allowing viral spread. On day 5, the uninfected fraction is treated with AZT (5 μM) and labeled with CFSE (1 μM). On day 6, the infected and CFSE-labeled (i.e., uninfected) cultures are mixed and co-cultured in the presence of AZT. […] After 6 days of co-culturing, the number of viable CFSE-positive cells is determined by flow cytometry. (B) Flow cytometry analysis of the mixed HLACs. Indirect killing is determined by gating on live CFSE-positive cells in the mixed cultures. Effector cells are either infected or uninfected cells. […] CFSE-labeled cells mixed with uninfected or infected cells were cultured in the presence of 5 μM AZT alone or together with 250 nM AMD3100. Data represent live CFSE-positive cells 6 days after co-culture with infected or uninfected effector cells. […] The absolute numbers of viable CFSE-positive CD4 and CD8 T-cells and B cells were determined. Percentages are normalized to the number of viable CFSE-positive cells co-cultured with uninfected cells in the presence of AZT, as depicted by (*). Error bars represent standard deviations of three samples from the same donor. […] See also FIG. 3.
Human tonsil or splenic tissues from routine tonsillectomies were obtained from the National Disease Research Interchange and the Cooperative Human Tissue Network and processed as previously described (Jekle et al., 2003, J Virol 77:5846-5854). In brief, tonsils or spleen were minced, passed through a 40-μm cell strainer, and cultured in 96-well U-bottomed polystyrene plates (2×10^6 cells/well) in medium (200 μl/well) consisting of RPMI 1640 supplemented with 15% heat-inactivated fetal bovine serum, 100 μg/ml gentamicin, 200 μg/ml ampicillin, 1 mM sodium pyruvate, 1% nonessential amino acids (Mediatech), 2 mM L-glutamine, and 1% fungizone (Invitrogen). All HIV-1 infections were carried out with 20-50 ng of HIV-1 p24^gag. Cells were incubated with the virus for 12-16 h, washed extensively, and supplemented with fresh medium. After day 5, infections were monitored by measuring p24gag levels in the culture medium using a FLAQ assay (Hayden et al., 2003, AIDS 17:629-631). Infected and uninfected cultures were manipulated as described for individual experiments. In “indirect killing” assays, unless otherwise stated, drugs were used at the following concentrations: 5 μM AZT; 250 nM AMD3100; 10 μg/ml T20; 100 nM Efavirenz; 1 μM Nevirapine; 30 μM Raltegravir; 60 μM 118-D-24; 5 μM Amprenavir; 5 μM Saquinavir; 5 μM Indinavir. CFSE-labeled cells were activated with PHA (5 μg/ml) and IL-2 (20 ng/ml) 2 days before mixing with effector cells.
Uninfected cells (5×10^6/ml) were labeled with 1 μM CFSE (Molecular Probes C1157), treated with 5 μM AZT for 24 h, and co-cultured with effector cells. CFSE readily diffuses into cells, where intracellular esterases cleave the acetate groups, converting it to a fluorescent, membrane-impermeable dye.

[14] = tested on: CD4 T cells in HIV-1 (NL4-3)-infected HLACs; assay: CD4 T-cell death in HIV-1-infected HLACs, viable CD4 T cells by flow cytometry; type: cell-based, human; settings: FIG. 15, 4 different donors
[15] = tested on: lactate dehydrogenase (LDH) release; assay: LDH release from HIV-1-infected HLACs (pyroptosis); type: cell-based, human; settings: caspase inhibitors 50 μM or 100 μM, 3 days, FIG. 16C
Procedure: Caspase-1 activation can lead to a highly inflammatory form of cell death called pyroptosis. To gain insight into how CD4 T cells die, it was determined whether HIV infection in CD4 T cells induce pyroptosis cell death, as measured by lactate dehydrogenase (LDH) release. HLACs were left uninfected or infected with NL4-3 in the presence of no drugs, efavirenz, AMD3100, or caspase inhibitors (50 μM or 100 μM), as indicated in FIG. 16C. After 3 days, the supernatants were assayed for the cytosolic enzyme lactate dehydrogenase (LDH) and the LDH released by dying cells was quantified.

[16] = tested on: IL-1β; assay: Release of 17-kDa IL-1β from isolated tonsillar CD4 T-cells (ionophore stimulus); type: cell-based, human; settings: nigericin 10 μM
Procedure: For stimulating the processing and secretion of IL-1, CD4 T-cells were isolated from HLACs by positive selection and treated with 0.5 μM PMA ([…], Calbiochem Cat. #524400) for 6 hours at 37° C. PMA induces large intracellular stores of the 35 kDa pro-IL-1β. Cells were then washed with PBS and treated with 10 μM nigericin (Sigma, Cat. # N7143) overnight at 37° C. The potassium ionophore nigericin mediates an elecroneutral exchange of intracellular K^+ ions for extracellular protons, providing a second inflammatory stimulus, which results in the maturation and release of the bioactive 17 kDa IL-1β(Perregaux et al., 1992, J Immunol 149:1294-1303; Perregaux and Gabel, 1994, J Biol Chem 269:15195-15203).
Isolated tonsillar CD4 T-cells were treated overnight with nigericin (10 μM) to provide a second inflammatory stimulus, resulting in maturation and release of bioactive 17-kDa IL-1β. Supernatants from the cell cultures were subjected to SDS-PAGE and immunoblotting. 17-kDa IL-1β was released after treatment with nigericin, but not with calcium ionophore A23187 or the nonspecific cation ionophore monensin. Thus, while these cells are primed, they must receive the appropriate proinflammatory signal for pro-IL-1β processing and release. […]

Chain of caspase-1 (P29466 120-297 limits assumed): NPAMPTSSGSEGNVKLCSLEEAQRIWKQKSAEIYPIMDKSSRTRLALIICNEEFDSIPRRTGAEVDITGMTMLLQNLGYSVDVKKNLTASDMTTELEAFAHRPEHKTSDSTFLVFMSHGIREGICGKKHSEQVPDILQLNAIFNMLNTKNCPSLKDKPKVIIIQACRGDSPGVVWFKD
Chain of caspase-1 (P29466 317-404 limits assumed): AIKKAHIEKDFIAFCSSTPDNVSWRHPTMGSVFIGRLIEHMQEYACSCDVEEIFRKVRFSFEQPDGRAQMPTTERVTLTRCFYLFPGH
Chain of caspase-4 (P49662 81-270 limits assumed): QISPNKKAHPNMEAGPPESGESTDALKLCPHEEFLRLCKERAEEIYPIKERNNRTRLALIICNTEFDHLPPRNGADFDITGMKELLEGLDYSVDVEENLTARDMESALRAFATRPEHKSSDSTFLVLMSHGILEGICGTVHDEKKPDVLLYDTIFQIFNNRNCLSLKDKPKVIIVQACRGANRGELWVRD
Chain of caspase-4 (P49662 290-377 limits assumed): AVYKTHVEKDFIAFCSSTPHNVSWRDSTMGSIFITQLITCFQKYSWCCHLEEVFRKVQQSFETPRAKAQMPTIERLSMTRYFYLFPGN

Question: Which AIM2 inflammasome [1] does the source give for `CC(C)(O)c1coc(S(=O)(=O)NC(=O)Nc2c3c(cc4c2CCC4)CCC3)c1` [CRID3] here?
Answer: The AIM2 inflammasome was “inhibited”.

Question: What does the source list for `C[C@H](NC(=O)C(=O)Nc1ccccc1C(C)(C)C)C(=O)N[C@@H](CC(=O)O)C(=O)COc1c(F)c(F)cc(F)c1F` [IDN-6556]?
Answer: CI/WR-induced apoptosis and injury in the liver and other organs [2]: reduced CI/WR (cold ischemia/warm reperfusion)-induced apoptosis and injury; efficacy (aminotransferase activity) [3]: efficacious; tolerability [3]: well tolerated; inhibition of other classes of proteases or other enzymes or receptors [4]: no inhibition; tolerability [5]: well tolerated; caspase inhibition spectrum [6]: activity against all tested human caspases

Question: Which results are given for `O=C[C@H](CC(=O)O)NC(=O)[C@@H]1CCCN2C(=O)CC[C@H](NC(=O)c3nccc4ccccc34)C(=O)N12` [VRT-018858]?
Answer: selectivity for caspase 1 and caspase-4 against other caspases [7]: > 100 fold; Ki ([7]; read-out: Ki against caspase-1): 1.3 nM; brain damage induced by transient ischemia [8]: markedly reduced brain damage; Ki [9]: 0.4 nM

Question: With `CCO[C@@H]1OC(=O)C[C@@H]1NC(=O)[C@@H]1CCCN1C(=O)[C@@H](NC(=O)c1ccc(N)c(Cl)c1)C(C)(C)C` [VX-765, (S)-1-((S)-2-{[1-(4-Amino-3-chloro-phenyl)-methanoyl]-amino}-3,3-dimethyl-butanoyl)-pyrrolidine-2-carboxylic acid ((2R,3S)-2-ethoxy-5-oxo-tetrahydro-furan-3-yl)-amide] as the compound, how does the inflammatory response [10] read?
Answer: The inflammatory response was “reduces inflammatory response”.

Question: And the IL-1β secretion ([11]; Stack et al.)?
Answer: Its IL-1β secretion is “blocked IL-1β secretion”.

Question: What about the IC50 ([11]; human PBMCs, read-out: IC50, release of LPS-induced IL-1β and IL-18) of the same compound?
Answer: The IC50 was roughly 700 nM.

Question: What does the source list for `COC(=O)CC[C@H](NC(=O)[C@H](CC(=O)OC)NC(=O)OCc1ccccc1)C(=O)N[C@H](C(=O)N[C@@H](CC(=O)OC)C(=O)CF)C(C)C` [Z-DEVD-FMK]?
Answer: CD4 T-cell population whose death was prevented ([12]; 20 μM, FIG. 16A): 50%; CD4 T-cell death in HIV-infected cultures ([12]; caspase inhibitors 50 μM or 100 μM, FIG. 16B): did not prevent the death; reduction of cell death ([13]; 20 μM, specific inhibition of caspase-3): 50%; death of infected CD4 T-cells [14]: also inhibits death of infected CD4 T cells, however, not as efficient as caspase-1 inhibitors; LDH release from HIV-1 infected cells [15]: did not prevent the LDH release

Question: For `COC(=O)C[C@H](NC(=O)[C@H](C)NC(=O)[C@@H](NC(=O)OCc1ccccc1)C(C)C)C(=O)CF` [Z-VAD-FMK, Z-Val-Ala-Asp(OMe)-Fluoro methyl ester] (Cbz-Val-Ala-Asp(OMe)-CH2F), which “death of abortively infected CD4 T-cells with caspase inhibitors” value ([13]; 20 μM caspase inhibitor, AZT 5 μM) is on record?
Answer: Its value is “completely prevented”.

Question: And the “death of infected CD4 T-cells” value [14]?
Answer: The value was “inhibit the death of infected CD4 T-cells”.

Question: What about the “nigericin-induced IL-1β release after pre-treatment with caspase inhibitor” value [16] of the same compound?
Answer: The value was “blocked”.
